Data on four molecules can be found in ChEMBL document CHEMBL1125402, “Conformational effects on the activity of drugs. 13. A revision of previously proposed models for the activation of alpha- and beta-adrenergic receptors” (J Med Chem, 1992).

The Ki is a measure of affinity in units of concentration, obtained from inhibition or displacement. Read a low Ki as tighter binding.

The structures appear in SMILES notation. Some results are limits rather than exact numbers.

In test [1] the target is T1, Adrenergic receptor alpha-2 (Homo sapiens) (UniProt P08913+P18825+P18089). Put plainly: Intrinsic activity was expressed as the ratio between maximal response elicited by compound and that elicited by full agonist NE towards alpha-2 adrenergic receptor of isolated guinea pig ileum. In kind it is functional, tissue-based. As to conditions: Cavia porcellus.
For test [2], the target named is T1, Adrenergic receptor alpha-2 (Homo sapiens). The test is described as follows: Compound was evaluated for alpha adrenoceptor agonistic activity towards alpha-2 adrenergic receptor of isolated guinea pig ileum. The format is functional, tissue-based. As to conditions: Cavia porcellus, target entry is the homologue from another species.
Test [3] deals with T2, Adrenergic receptor alpha-1 (Rattus norvegicus, UniProt P15823+P23944+P43140).
T2 sequence (P15823 whole entry): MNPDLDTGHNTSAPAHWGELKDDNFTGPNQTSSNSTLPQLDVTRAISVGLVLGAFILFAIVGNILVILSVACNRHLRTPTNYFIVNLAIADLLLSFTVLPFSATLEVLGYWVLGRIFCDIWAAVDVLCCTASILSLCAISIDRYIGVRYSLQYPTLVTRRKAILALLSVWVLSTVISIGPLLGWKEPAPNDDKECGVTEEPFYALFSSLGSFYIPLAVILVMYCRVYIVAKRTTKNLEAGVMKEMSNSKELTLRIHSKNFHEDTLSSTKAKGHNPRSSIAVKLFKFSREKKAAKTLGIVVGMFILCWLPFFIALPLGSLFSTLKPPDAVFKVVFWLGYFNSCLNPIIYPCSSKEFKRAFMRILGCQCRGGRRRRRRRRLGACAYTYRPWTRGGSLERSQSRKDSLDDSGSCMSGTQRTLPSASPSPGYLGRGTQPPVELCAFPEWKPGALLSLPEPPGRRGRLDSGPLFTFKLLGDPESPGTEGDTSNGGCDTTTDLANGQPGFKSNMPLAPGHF
T2 sequence (P23944 whole entry): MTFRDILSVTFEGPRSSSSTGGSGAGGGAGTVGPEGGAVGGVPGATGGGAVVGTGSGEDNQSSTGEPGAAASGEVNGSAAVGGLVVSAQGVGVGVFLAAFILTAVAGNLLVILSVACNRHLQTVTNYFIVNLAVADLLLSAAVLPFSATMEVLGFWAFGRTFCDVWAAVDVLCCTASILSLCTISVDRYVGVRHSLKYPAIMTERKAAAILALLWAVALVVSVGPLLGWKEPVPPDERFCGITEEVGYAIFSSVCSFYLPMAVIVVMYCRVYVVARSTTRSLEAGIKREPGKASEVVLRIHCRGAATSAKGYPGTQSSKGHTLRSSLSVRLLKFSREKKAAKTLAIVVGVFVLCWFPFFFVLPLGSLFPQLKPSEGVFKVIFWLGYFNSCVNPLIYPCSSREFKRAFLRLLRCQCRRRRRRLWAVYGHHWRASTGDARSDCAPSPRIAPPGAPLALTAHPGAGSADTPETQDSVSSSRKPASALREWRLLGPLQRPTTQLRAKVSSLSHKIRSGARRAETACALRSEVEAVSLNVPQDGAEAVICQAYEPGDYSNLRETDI
T2 sequence (P43140 whole entry): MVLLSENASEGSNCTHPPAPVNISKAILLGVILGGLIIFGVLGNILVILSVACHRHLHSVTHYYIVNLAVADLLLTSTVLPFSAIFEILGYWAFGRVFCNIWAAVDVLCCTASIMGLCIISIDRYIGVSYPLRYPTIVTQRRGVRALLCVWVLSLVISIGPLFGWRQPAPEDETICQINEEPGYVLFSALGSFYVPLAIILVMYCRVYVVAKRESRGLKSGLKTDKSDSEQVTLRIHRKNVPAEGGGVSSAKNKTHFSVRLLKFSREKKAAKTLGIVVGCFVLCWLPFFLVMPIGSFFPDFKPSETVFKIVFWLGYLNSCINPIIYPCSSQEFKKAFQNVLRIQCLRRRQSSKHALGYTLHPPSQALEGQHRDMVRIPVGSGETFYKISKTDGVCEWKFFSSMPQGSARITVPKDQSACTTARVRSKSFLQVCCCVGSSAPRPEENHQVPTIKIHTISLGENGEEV
Put plainly: Binding affinity towards Alpha-1 adrenergic receptor of rat brain.

The nature of test [4]: Compound was evaluated for Alpha-1 adrenergic receptor agonistic activity towards alpha 1 receptor of isolated rabbit aortic strips. In kind it is functional, Oryctolagus cuniculus.
Test [5] has as its target T3, Adrenergic receptor alpha-2 (Rattus norvegicus, UniProt P22086+P19328+P22909).
T3 sequence (P22086 whole entry): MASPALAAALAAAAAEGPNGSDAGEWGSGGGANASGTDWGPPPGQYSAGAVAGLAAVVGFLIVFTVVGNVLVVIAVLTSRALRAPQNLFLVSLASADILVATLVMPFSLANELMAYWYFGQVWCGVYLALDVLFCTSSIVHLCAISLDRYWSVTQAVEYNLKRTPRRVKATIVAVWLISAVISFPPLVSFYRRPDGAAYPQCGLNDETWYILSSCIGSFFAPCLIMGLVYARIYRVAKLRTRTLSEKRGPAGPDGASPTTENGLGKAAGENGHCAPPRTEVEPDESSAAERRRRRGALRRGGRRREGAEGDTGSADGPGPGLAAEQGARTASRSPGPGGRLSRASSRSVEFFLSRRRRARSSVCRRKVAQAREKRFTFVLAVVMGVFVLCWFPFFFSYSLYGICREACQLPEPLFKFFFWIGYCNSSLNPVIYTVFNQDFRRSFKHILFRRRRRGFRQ
T3 sequence (P19328 whole entry): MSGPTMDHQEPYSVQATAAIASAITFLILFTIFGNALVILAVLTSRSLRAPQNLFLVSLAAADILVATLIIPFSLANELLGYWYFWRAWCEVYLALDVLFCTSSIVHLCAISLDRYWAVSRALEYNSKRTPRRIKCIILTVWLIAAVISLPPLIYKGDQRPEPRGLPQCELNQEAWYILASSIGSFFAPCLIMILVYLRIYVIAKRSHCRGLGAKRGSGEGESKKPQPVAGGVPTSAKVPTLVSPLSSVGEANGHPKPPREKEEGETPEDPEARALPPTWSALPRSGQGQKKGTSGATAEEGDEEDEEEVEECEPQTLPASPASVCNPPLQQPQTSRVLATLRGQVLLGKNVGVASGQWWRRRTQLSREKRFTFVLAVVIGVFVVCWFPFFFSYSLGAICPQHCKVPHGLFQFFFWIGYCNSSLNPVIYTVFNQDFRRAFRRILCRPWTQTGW
T3 sequence (P22909 whole entry): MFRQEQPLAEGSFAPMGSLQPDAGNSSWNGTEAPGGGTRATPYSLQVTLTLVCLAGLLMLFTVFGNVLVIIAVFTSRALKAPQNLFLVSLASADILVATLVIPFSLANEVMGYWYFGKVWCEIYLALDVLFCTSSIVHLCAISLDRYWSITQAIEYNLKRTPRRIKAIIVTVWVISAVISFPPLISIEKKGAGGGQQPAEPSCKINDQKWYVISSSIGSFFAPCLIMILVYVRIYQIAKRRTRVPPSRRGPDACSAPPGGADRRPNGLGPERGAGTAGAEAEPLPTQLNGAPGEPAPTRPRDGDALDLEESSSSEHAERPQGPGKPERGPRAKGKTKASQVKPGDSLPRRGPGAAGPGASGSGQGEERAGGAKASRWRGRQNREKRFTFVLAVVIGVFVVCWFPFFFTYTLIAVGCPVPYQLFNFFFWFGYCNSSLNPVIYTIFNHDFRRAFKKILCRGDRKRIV
Put plainly: Binding affinity towards alpha-2 adrenergic receptor of rat brain.

Test [6] addresses Beta-1 adrenergic receptor (Cavia porcellus) (UniProt B0FL73). The test is described as follows: Compound was evaluated for beta adrenoceptor agonistic activity towards Beta-1 adrenergic receptor of isolated guinea pig atria (exp 1). In kind it is functional.
The target of test [7] is T4, Beta-2 adrenergic receptor (Bos taurus, UniProt Q28044). Put plainly: Compound was evaluated for beta adrenergic binding affinity towards Beta-2 adrenergic receptor of bovine lung.
T4 sequence (Q28044 whole entry): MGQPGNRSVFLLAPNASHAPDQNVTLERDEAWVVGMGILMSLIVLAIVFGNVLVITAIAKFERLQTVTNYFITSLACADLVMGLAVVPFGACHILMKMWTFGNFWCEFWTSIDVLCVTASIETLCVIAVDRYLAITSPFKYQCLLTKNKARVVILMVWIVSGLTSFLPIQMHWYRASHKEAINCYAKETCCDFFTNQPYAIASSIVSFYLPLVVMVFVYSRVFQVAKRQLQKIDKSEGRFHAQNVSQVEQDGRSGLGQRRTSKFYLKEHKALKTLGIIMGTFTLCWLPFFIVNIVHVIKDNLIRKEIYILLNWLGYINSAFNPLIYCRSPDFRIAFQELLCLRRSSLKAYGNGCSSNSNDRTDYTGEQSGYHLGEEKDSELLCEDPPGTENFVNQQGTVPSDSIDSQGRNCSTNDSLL
Test [8] deals with Beta-1 adrenergic receptor (Cavia porcellus) (UniProt B0FL73). The test is described as follows: Intrinsic activity was expressed as the ratio between maximal response elicited by compound and that elicited by full agonist ISO towards beta 1 receptor of isolated guinea pig atria. In kind it is functional.
Chain of Beta-1 adrenergic receptor (Cavia porcellus) (B0FL73 1-467): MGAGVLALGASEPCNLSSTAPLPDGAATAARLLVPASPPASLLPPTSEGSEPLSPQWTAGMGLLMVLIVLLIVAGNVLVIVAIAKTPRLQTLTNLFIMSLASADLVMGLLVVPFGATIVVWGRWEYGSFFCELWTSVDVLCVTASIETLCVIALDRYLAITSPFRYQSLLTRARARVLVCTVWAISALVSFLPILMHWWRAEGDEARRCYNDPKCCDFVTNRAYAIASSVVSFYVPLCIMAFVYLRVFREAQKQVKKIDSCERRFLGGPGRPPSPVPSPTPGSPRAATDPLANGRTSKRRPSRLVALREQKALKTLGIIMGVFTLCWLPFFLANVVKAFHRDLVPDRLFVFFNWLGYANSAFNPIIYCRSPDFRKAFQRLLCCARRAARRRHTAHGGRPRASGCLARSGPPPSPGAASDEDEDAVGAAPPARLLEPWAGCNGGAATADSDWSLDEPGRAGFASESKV
Test [9] concerns the target Beta-1 adrenergic receptor (Rattus norvegicus, UniProt P18090).
Description: Compound was evaluated for beta adrenergic binding affinity towards Beta-1 adrenergic receptor of rat brain
In test [10] the target is Beta-1 adrenergic receptor (Cavia porcellus) (UniProt B0FL73).
Description: Compound was evaluated for beta adrenoceptor agonistic activity towards Beta-1 adrenergic receptor of isolated guinea pig atria (exp 2)
Test [11] concerns the target Beta-2 adrenergic receptor (Cavia porcellus) (UniProt Q8K4Z4).
Description: Compound was evaluated for beta adrenoceptor agonistic activity towards Beta-2 adrenergic receptor of isolated guinea pig tracheal strip (exp 2)
The target is the same in test [12]. This is another data set of the same source.
Description: Compound was evaluated for beta adrenoceptor agonistic activity towards Beta-2 adrenergic receptor of isolated guinea pig tracheal strip (exp 1)
For test [13], the target named is T5, Adrenergic receptor alpha-1 (Rattus norvegicus) (UniProt P15823+P23944+P43140). The test is described as follows: Compound was evaluated for alpha adrenoceptor agonistic activity towards Alpha-1 adrenergic receptor of isolated rat vas deferens. In kind it is functional, tissue-based.
For test [14], the target named is T4, Beta-2 adrenergic receptor. Put plainly: Compound was evaluated for beta adrenergic binding affinity towards beta-2 receptor of bovine lung.
For test [15], the target named is T1, Adrenergic receptor alpha-2 (Homo sapiens). As to conditions: Cavia porcellus; Ileum.
Description: Intrinsic activity was expressed as the ratio between maximal response elicited by compound and that elicited by full agonist NE towards Alpha-2 adrenergic receptor of isolated guinea pig ileum
The target of test [16] is T5, Adrenergic receptor alpha-1 (Rattus norvegicus). As to conditions: Vas deferens.
Test [17] addresses Beta-1 adrenergic receptor (Cavia porcellus) (UniProt B0FL73). The source holds these as a separate data set.
Description: Intrinsic activity was expressed as the ratio between maximal response elicited by compound and that elicited by full agonist ISO towards Beta-1 adrenergic receptor of isolated guinea pig atria
Test [18] has as its target Beta-2 adrenergic receptor (Cavia porcellus) (UniProt Q8K4Z4). The source holds these as a separate data set.
Description: Compound was evaluated for beta adrenoceptor agonistic activity towards beta 2 receptor of isolated guinea pig tracheal strip
Test [19] deals with T5, Adrenergic receptor alpha-1 (Rattus norvegicus). Put plainly: Intrinsic activity was expressed as the ratio between maximal response elicited by compound and that elicited by full agonist NE towards Alpha-1 adrenergic receptor of isolated rat vas deferens; ND=No data. The format is functional.
In test [20] the target is T3, Adrenergic receptor alpha-2. The test is described as follows: Compound was evaluated for alpha adrenergic binding affinity towards Alpha-2 adrenergic receptor of rat brain.
Test [21] has as its target T2, Adrenergic receptor alpha-1. Put plainly: Compound was evaluated for alpha adrenergic binding affinity towards alpha-1 receptor of rat brain.

Chain of Beta-2 adrenergic receptor (Cavia porcellus) (Q8K4Z4 whole entry, looked up): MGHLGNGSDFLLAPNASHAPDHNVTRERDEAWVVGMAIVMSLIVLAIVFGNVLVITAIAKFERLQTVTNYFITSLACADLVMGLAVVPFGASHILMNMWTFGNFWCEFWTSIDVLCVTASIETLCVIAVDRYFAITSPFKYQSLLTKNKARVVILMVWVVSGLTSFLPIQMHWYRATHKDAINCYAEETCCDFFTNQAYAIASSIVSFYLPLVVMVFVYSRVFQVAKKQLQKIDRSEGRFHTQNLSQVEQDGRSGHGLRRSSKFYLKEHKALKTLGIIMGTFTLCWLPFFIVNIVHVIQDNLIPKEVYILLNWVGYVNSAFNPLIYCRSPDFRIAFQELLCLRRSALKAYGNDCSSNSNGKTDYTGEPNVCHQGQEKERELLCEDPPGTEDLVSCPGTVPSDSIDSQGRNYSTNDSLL
Chain of Beta-1 adrenergic receptor (P18090 whole entry): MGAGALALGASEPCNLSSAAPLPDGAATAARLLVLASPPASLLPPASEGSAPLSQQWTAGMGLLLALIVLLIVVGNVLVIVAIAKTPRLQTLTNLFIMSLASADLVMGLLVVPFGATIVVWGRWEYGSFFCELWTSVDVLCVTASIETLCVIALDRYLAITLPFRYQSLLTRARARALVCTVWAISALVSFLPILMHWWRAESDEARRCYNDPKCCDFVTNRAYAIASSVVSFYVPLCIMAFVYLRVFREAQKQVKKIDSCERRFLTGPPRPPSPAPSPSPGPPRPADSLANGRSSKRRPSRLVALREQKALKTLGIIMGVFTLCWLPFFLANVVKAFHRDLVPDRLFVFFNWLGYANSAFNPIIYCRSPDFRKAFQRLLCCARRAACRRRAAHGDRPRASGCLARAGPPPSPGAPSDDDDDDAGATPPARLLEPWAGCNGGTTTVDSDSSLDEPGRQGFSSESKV

In the case of `CC(C)N[C@@H]1CCc2c(ccc(O)c2O)[C@H]1O`, the Intrinsic activity in test [1] was 0.72; in test [8] it was 1. Moreover, the pD2 is 5.6 in test [2]; <3.5 in [4]; 6.72 in test [6]; 7.56 in test [10]; 8.41 in test [11]; 8.06 in test [12]. For the same molecule, the inhibitory constant (Ki) is > 100 µM in test [3], 5.8 µM in test [5], 0.062 µM in test [7] and 0.76 µM in test [9].
Molecule `NC[C@H](O)c1ccc(O)c(O)c1` [NOREPINEPHRINE] registered an Intrinsic activity in test [13] of 1. Moreover, affinity in [14] was put at a Ki of 6 µM. The pD2 stood at 6.56 in [15], 5.12 in test [16], 6.32 in test [17] and 6.03 in test [18].
On to `CC(C)NC1CCc2cc(O)c(O)cc2[C@H]1O` (stereo partly drawn), for which the pD2 in [19] was < 3.5; in test [15], 5.72; in test [17], 4.44; in test [18] it was 6.17. The Ki in [3] was 1.2 µM; in [14] it was > 100 µM; in [20] it was 1.57 µM; in [9], > 100 µM.
`CC(C)NCC(O)c1ccc(O)c(O)c1` (stereo not drawn) [ISOPROTERENOL]: the Ki in test [21] is 35.5 µM; in [20], 21 µM.
